{"source": "patent US20180185408A1", "about": "“ANTIFUNGAL NYLON-3 POLYMERS AND COMBINATION THERAPY USING THEM TO TREAT FUNGAL INFECTIONS” (priority 2016, published 2018)", "tested_on": "Cryptococcus neoformans", "assay": "MIC by broth microdilution (CLSI M27-A3)", "assay_type": "cell-based", "settings": "Cryptococcus neoformans, Resistance FLU"}
{"smiles": "OC(Cn1cncn1)(Cn1cncn1)c1ccc(F)cc1F", "note": "[FLC, fluconazole]", "values": [{"measurement": "MIC50", "setting": "Cryptococcus neoformans CN2", "value": "> 64", "unit": "µg/mL"}, {"measurement": "MIC50", "setting": "Cryptococcus neoformans CN3", "value": "> 64", "unit": "µg/mL"}]}
